Test: Henry solubility constant Hcp at 295 K (mol/(m3 Pa))
Details: reference: Hellmann (1987)

SMILES	Henry solubility constant Hcp at 295 K
ClC(Cl)(Cl)Cl [tetrachloromethane]	0.00033
Clc1ccccc1 [chlorobenzene]	0.0029
c1ccccc1 [benzene]	0.002
O=[N+]([O-])c1ccc(Cl)cc1 [4-chloronitrobenzene]	0.18
CC(C)=O [propanone]	0.14
ClCCl [dichloromethane]	0.0057
O=[N+]([O-])c1ccccc1 [nitrobenzene]	0.14
CCCCCOC(C)=O [pentyl ethanoate]	0.034
Clc1cc(Cl)cc(Cl)c1 [1,3,5-trichlorobenzene]	0.035
ClC(Cl)=C(Cl)Cl [tetrachloroethene]	0.00077
CC(=O)CC(C)C [4-methyl-2-pentanone]	0.065
ClC=C(Cl)Cl [trichloroethene]	0.00098

Source: Sander's compilation of Henry's law constants (doi:10.1007/bf00475967)
